# Active and inactive are the calls of the source.
# What was measured:
# [1] = target: T1, Mannose-6-phosphate isomerase (Homo sapiens, UniProt P34949); experiment: phosphomannose isomerase inhibition – biochemical, fluorescence intensity, confirmation (AID 1535)
# T1 sequence (P34949 whole entry): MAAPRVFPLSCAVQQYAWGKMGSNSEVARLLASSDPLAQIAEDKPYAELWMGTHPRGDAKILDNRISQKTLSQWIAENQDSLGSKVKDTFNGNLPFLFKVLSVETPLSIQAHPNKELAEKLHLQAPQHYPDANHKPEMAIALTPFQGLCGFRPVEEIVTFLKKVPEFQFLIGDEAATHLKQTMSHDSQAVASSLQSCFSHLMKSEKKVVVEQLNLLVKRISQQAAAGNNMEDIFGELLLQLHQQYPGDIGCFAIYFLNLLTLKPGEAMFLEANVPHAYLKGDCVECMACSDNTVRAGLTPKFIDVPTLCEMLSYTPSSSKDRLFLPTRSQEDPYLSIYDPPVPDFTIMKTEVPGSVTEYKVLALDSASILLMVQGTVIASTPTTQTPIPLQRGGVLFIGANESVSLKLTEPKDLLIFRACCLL
# [2] = target: Phosphomannomutase 2 (Homo sapiens, UniProt O15305); experiment: Counter screen SAR assay for PMM2 inhibitors via a fluorescence intensity assay. [Related pubchem assays (depositor defined):AID1545, AID1574]
# Chain of Phosphomannomutase 2 (O15305 whole entry): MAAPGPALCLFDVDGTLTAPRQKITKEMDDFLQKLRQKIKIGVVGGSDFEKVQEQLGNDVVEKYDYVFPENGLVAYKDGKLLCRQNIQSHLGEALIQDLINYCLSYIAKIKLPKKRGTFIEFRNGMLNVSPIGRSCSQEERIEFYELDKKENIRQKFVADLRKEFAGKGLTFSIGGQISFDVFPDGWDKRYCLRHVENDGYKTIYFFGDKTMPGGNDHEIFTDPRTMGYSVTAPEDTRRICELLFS
# [3] = test system: HEK293; experiment: inhibition of NOD1-driven NF-kB reporter – cell-based, luminescence, uHTS, primary screen (AID 1578); type: functional; details: Homo sapiens
# [4] = test system: HEK293; experiment: cells; type: functional, cell-based; details: Homo sapiens
# [5] = test system: HEK293; experiment: cells; type: functional, cell-based; details: Homo sapiens; remark: listed apart in the source
# [6] = test system: HEK293; experiment: NOD2 signaling inhibitors in MDP-stimulated cells, cell-based, uHTS, luminescence (AID 2001); type: functional; details: Homo sapiens
# [7] = target: Nucleotide-binding oligomerization domain-containing protein 1 (Homo sapiens, UniProt Q9Y239); experiment: blockers of NOD1 pathway activity – revised, SAR follow-up (AID 2333); type: functional
# [8] = target: T2, Corticotropin-releasing factor receptor 2/Corticotropin-releasing factor-binding protein (Homo sapiens, UniProt P24387+Q13324); experiment: Dose Response confirmation of uHTS hits for small molecule antagonists of the CRF-binding protein and CRF-R2 receptor complex.; type: functional; details: read-out: IC50_Mean
# T2 sequence (Q13324 whole entry): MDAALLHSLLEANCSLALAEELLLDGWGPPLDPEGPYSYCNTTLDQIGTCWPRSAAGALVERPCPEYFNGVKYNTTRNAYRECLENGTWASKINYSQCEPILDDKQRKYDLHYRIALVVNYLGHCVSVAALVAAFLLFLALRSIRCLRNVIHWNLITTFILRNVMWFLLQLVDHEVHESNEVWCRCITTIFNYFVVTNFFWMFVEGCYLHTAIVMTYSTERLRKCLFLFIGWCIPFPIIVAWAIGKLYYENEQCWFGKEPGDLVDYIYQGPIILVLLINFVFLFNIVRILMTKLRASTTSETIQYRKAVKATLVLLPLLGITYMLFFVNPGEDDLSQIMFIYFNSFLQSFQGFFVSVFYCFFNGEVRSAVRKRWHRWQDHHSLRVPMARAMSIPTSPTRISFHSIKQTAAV
# T2 sequence (P24387 whole entry): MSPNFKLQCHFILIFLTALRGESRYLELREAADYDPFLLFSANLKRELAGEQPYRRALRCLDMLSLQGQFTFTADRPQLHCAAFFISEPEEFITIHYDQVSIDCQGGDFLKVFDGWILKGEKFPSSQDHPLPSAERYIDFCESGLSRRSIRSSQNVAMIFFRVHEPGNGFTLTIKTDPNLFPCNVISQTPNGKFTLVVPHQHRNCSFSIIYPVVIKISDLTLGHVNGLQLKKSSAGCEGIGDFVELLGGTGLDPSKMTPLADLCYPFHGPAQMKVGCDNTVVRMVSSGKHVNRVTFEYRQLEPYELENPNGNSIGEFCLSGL
# [9] = target: T2, Corticotropin-releasing factor receptor 2/Corticotropin-releasing factor-binding protein; experiment: activators of CRF receptor 2 with binding protein – uHTS hits, confirmation (AID 602473); type: functional; details: read-out: EC50_Mean
# [10] = blockers of CRF-binding protein–CRF-R2 complex – cell-based, uHTS hits, 384-well, dose response (AID 651639); type: functional, Homo sapiens; details: read-out: IC50_Mean
# [11] = test system: HEK293; experiment: cells; details: Homo sapiens
# [12] = target: Ephrin type-A receptor 4 (Mus musculus, UniProt Q03137); experiment: EphA4 ligand-binding antagonists – biochemical, colorimetric, mouse EphA4, primary screen (AID 689); type: functional
# [13] = test system: HeLa; experiment: viability loss in HeLa cells – cell-based, 24 h, cherry-picked samples, cytotoxicity control, dose response (AID 504726); type: functional; details: Homo sapiens;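 further: potency for cytotoxicity as loss of luminescence signal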
# [14] = target: ORF 73 (Human herpesvirus 8, UniProt O40947); experiment: KSHV LANA DNA-binding disruption – biochemical, fluorescence polarization, cherry-picked samples, dose response (AID 504725); set-up: species or system Human gammaherpesvirus 8;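 further: fluorescence polarization of a labeled DNA duplex reporting LANA DNA binding; potency is for inhibitors that block LANA binding to the DNA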
# [15] = target: UDP-galactopyranose mutase (Mycobacterium tuberculosis, UniProt P9WIQ1); experiment: Inhibitors of Mycobacterium tuberculosis UDP-galactopyranose mutase (UGM) enzyme Measured in Biochemical System Using Plate Reader - 2105-02_Inhibitor_Dose_CherryPick_Activity. [Related pubchem assays (depositor defined):AID504439]
# [16] = target: Cytochrome P450 2D6 (Homo sapiens, UniProt P10635);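 further: CYP2D6 member of a cytochrome P450 panel assay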
# [17] = target: G-protein coupled receptor 35 (Homo sapiens, UniProt Q9HC97); experiment: SAR Analysis for the identification of Selective Antagonists of ERK1/2 Activity in GPR35-Overexpressing U2OS Cells. [Related pubchem assays: 2079, 2058 ]; type: functional, cell-based
# Chain of G-protein coupled receptor 35 (Q9HC97 whole entry): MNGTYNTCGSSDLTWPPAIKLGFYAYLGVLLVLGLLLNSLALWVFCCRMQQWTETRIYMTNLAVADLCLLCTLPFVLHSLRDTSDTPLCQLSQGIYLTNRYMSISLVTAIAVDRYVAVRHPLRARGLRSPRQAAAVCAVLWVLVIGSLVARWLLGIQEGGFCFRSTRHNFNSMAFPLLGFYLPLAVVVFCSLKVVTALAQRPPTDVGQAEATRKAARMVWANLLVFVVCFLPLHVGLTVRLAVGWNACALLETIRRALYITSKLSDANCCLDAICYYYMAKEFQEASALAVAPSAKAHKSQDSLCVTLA
# [18] = target: Tyrosine-protein phosphatase non-receptor type 12 (Homo sapiens, UniProt Q05209); experiment: SAR Selectivity Analysis of small molecule inhibitors of PEST using pCAP in a fluorescence assay. [Related pubchem assays (depositor defined):AID1779, AID1784, AID2135]; type: functional
# Chain of Tyrosine-protein phosphatase non-receptor type 12 (Q05209 whole entry): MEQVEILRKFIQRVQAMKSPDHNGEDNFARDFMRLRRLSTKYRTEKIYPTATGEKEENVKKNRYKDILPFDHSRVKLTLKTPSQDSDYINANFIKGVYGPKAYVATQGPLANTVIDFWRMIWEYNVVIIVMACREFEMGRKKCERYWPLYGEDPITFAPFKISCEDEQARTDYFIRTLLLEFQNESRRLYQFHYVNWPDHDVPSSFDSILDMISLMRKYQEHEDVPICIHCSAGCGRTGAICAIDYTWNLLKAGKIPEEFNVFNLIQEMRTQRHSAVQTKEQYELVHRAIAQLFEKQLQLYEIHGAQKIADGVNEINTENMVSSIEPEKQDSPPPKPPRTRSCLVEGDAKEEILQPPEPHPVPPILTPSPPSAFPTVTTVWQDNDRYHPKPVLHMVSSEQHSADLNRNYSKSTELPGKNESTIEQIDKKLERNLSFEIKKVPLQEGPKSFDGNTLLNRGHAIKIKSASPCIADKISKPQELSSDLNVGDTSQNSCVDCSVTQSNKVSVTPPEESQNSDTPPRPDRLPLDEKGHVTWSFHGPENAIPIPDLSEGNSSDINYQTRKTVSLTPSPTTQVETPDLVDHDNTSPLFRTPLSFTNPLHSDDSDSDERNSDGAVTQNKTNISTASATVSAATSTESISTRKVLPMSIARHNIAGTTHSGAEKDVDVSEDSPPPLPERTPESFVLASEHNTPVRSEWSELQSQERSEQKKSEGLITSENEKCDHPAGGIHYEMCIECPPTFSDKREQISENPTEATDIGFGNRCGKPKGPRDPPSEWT
# [19] = target: T3, Tyrosine-protein phosphatase non-receptor type 22 (Homo sapiens, UniProt Q9Y2R2); experiment: SAR LYP1 Fluorescent Assay using OMFP substrate for In Vitro dose response studies - Set 3. [Related pubchem assays (depositor defined):AID1779, AID1784, AID2140, AID2686]; type: functional
# T3 sequence (Q9Y2R2 whole entry): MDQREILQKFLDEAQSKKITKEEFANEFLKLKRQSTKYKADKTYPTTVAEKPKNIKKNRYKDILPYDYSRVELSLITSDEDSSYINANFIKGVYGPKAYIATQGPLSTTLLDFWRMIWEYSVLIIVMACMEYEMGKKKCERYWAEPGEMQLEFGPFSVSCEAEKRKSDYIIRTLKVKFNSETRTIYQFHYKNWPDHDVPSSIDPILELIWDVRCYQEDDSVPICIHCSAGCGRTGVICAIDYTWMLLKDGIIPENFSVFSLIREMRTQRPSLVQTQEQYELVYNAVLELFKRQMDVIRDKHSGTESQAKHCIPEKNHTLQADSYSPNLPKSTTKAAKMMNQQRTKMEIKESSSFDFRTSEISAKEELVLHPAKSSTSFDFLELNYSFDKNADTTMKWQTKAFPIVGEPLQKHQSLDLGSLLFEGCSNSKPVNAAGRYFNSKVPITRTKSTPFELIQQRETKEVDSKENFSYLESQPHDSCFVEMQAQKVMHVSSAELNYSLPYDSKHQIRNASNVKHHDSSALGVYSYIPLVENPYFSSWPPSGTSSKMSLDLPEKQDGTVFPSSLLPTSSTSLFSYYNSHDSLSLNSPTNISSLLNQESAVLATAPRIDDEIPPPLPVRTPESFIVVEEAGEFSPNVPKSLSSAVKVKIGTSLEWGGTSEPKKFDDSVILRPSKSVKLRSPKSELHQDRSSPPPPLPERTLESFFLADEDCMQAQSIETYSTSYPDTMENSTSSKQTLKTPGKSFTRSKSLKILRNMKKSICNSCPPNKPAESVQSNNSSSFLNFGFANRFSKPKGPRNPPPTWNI
# [20] = target: T4, Tyrosine-protein phosphatase non-receptor type 7 (Homo sapiens, UniProt P35236); experiment: inhibition of hematopoietic tyrosine phosphatase HePTP – biochemical, set 2, SAR follow-up (AID 449736); type: functional
# T4 sequence (P35236 whole entry): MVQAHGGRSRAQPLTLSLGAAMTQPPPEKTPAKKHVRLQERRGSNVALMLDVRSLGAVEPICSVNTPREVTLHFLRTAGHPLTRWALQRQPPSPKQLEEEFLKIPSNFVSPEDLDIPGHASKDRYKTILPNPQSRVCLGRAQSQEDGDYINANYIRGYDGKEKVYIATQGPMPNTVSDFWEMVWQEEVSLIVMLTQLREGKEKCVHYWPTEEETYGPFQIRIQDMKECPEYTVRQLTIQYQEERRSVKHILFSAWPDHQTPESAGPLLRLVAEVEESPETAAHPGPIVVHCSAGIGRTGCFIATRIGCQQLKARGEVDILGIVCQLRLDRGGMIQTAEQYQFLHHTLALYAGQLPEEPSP
# [21] = target: T3, Tyrosine-protein phosphatase non-receptor type 22; experiment: inhibition of lymphoid tyrosine phosphatase LYP – biochemical, pCAP fluorogenic substrate, fluorescence, set 3, SAR follow-up (AID 449727); type: functional
# [22] = target: G-protein coupled receptor 55 (Homo sapiens, UniProt Q9Y2T6); experiment: blockers of GPR55 signalling, imaged – imaging, image-based, counter-screen for GPR35 antagonist project, SAR follow-up (AID 2397); type: functional
# Chain of G-protein coupled receptor 55 (Q9Y2T6 whole entry): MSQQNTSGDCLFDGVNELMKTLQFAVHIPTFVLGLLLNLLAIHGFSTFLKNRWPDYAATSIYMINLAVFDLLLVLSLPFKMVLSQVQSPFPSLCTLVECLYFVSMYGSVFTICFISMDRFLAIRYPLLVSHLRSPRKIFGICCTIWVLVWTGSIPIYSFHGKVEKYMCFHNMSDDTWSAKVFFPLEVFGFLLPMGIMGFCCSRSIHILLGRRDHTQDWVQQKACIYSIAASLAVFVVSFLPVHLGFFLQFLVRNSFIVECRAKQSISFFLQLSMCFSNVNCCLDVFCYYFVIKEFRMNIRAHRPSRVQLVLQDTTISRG
# [23] = target: Voltage-dependent T-type calcium channel subunit alpha-1H (Homo sapiens, UniProt O95180); experiment: inhibition of CACNA1H calcium flux – cell-based, SynthLib3 library, HEK293 Cav3.2, fluorescence (AID 493041); type: functional
# [24] = target: Trypsin (Sus scrofa, UniProt P00761); experiment: trypsin protease activity blockade – biochemical, quenched peptide fluorescence, cherry-pick, selectivity assay for Rce1 protease inhibitor project, dose response (AID 488789)
# Chain of Trypsin (P00761 whole entry): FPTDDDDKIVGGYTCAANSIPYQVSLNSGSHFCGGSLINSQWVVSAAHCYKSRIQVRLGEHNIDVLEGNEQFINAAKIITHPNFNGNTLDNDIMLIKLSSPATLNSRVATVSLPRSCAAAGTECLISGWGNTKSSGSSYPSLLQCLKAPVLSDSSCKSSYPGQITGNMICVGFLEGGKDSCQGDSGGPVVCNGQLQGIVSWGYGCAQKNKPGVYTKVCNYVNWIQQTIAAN
# [25] = target: CAAX prenyl protease 1 (Saccharomyces cerevisiae S288c, UniProt P47154); experiment: yeast CAAX protease Ste24 inhibition – biochemical, S. cerevisiae, plate reader, cherry-pick, dose response (AID 488815)
# [26] = target: T5, CAAX prenyl protease 2 (Homo sapiens, UniProt Q9Y256); experiment: inhibition of Ras-converting CAAX protease Rce1 – biochemical, yeast membranes, quenched-peptide fluorescence, cherry-pick, dose response (AID 588849)
# T5 sequence (Q9Y256 whole entry): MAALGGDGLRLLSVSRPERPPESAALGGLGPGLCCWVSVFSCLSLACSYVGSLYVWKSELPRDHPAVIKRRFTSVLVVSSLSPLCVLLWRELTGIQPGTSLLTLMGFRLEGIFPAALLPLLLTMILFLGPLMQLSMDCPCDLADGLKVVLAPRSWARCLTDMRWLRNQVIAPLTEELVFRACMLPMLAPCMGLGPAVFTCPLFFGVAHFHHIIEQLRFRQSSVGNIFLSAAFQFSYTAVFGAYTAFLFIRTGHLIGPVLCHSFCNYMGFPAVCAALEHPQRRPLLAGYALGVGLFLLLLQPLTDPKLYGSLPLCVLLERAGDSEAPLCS
# [27] = target: T6, Voltage-gated N-type calcium channel alpha-1B subunit/Amyloid beta A4 precursor protein-binding family A member 1 (Homo sapiens, UniProt Q00975+Q02410); type: protein assay
# T6 sequence (Q00975 whole entry): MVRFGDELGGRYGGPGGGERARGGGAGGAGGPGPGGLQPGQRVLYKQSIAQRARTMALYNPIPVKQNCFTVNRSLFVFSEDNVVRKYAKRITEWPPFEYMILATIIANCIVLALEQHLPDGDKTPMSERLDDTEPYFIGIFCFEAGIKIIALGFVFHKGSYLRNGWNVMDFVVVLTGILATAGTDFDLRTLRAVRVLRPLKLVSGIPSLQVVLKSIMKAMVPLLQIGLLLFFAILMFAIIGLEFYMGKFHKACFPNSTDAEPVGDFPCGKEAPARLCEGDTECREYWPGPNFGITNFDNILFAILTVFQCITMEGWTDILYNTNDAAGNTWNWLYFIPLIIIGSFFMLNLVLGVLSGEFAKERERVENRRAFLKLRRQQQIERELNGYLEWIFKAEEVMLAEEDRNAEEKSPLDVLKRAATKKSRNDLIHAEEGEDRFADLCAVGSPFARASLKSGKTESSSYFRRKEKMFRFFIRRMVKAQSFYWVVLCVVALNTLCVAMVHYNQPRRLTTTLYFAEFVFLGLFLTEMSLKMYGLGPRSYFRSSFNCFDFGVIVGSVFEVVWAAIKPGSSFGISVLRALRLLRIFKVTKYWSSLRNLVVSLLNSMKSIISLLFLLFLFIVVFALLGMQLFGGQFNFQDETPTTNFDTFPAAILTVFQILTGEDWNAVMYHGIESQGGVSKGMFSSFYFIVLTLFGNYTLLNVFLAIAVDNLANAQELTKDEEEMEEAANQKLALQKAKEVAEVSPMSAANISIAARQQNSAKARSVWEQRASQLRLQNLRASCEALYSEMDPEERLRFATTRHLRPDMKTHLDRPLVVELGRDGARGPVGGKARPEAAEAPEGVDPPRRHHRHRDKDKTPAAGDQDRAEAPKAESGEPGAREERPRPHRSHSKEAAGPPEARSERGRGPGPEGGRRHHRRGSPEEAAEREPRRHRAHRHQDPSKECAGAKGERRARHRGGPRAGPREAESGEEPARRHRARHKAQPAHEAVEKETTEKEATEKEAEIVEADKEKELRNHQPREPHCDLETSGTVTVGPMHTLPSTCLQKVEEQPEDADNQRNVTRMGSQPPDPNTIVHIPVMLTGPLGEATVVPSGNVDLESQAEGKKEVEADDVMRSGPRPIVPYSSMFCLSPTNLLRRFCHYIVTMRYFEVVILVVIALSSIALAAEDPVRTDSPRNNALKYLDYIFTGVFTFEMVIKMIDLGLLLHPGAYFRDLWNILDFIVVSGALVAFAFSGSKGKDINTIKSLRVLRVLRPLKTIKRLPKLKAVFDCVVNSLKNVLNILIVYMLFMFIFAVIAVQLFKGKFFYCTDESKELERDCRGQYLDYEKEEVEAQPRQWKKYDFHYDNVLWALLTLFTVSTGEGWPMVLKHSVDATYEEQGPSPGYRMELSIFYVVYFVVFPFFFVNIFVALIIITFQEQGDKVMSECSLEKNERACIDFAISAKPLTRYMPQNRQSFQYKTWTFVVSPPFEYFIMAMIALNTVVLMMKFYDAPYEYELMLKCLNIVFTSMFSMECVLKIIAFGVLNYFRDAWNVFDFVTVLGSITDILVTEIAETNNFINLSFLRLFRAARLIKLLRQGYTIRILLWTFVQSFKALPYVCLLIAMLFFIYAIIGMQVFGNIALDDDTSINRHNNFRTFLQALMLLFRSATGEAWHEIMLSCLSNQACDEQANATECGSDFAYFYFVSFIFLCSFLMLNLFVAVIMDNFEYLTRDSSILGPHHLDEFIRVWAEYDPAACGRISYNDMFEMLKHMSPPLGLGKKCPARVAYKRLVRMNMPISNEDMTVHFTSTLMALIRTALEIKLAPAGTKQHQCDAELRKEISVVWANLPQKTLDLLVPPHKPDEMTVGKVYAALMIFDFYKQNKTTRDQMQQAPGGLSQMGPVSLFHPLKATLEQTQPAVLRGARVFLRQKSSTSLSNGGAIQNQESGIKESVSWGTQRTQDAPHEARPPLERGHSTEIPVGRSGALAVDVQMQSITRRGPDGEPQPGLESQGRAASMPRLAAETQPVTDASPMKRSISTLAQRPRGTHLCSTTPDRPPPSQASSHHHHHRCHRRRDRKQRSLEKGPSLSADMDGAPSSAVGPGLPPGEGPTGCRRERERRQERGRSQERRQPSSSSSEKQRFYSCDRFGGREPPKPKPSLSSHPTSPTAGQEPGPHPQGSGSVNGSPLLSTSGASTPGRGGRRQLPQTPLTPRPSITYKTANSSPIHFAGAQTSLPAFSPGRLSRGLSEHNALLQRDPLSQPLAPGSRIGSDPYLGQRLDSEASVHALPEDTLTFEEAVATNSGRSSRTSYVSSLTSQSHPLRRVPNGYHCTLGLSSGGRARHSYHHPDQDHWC
# T6 sequence (Q02410 whole entry): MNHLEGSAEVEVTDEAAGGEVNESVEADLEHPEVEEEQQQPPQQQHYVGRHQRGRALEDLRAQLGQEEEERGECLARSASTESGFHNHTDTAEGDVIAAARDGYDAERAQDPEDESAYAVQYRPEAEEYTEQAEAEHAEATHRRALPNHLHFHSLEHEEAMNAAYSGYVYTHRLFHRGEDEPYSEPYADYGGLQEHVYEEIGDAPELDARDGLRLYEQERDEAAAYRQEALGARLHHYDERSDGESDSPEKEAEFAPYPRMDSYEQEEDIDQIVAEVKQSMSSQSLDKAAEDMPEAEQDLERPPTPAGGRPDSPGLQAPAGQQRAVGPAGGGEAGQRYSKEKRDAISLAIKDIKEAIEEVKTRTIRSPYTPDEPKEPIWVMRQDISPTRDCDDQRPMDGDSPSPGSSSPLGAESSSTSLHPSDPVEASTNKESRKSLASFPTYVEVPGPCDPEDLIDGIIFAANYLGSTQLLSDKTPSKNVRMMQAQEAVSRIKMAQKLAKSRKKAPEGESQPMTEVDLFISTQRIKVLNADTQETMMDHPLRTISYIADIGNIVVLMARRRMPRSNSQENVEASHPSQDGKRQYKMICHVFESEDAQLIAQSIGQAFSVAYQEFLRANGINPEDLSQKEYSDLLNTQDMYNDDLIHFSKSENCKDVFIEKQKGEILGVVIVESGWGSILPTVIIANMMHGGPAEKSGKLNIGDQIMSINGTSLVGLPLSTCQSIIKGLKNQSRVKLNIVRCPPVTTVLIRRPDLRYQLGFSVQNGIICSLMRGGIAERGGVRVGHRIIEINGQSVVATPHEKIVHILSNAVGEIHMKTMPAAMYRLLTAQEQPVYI
# [28] = target: T6, Voltage-gated N-type calcium channel alpha-1B subunit/Amyloid beta A4 precursor protein-binding family A member 1; type: protein assay; remark: listed apart in the source
# [29] = Trypanosoma cruzi growth suppression in host cells – NIH3T3 host cells, beta-gal luminescence, confirmation (AID 2044); type: functional, cell-based;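 further: intracellular parasites grown in NIH/3T3 mouse fibroblasts as host cells; luminescent beta-galactosidase reporter signal from transgenic T. cruzi replicating inside host cells; inhibitors lower the luminescence signal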
# [30] = NIH3T3 cell viability loss – ATP luminescence, mouse fibroblasts, counter-screen, dose response (AID 2010); type: functional, cell-based;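 further: cells exposed to compound for about 90 hours before reading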
# [31] = target: Exodeoxyribonuclease V (Escherichia coli (strain K12), UniProt P04993+P07648+P08394); experiment: RecBCD inhibition via phage-restricted bacterial growth – absorbance, V66 E. coli, mutant T4 phage, counter-screen for AddAB inhibitor project, dose response (AID 492957); type: functional, cell-based, Escherichia coli str. K-12 substr. MG1655
# [32] = Counterscreen for AddAB inhibitors: absorbance-based bacterial cell-based high throughput dose response assay for inhibitors of bacterial viability. [Related pubchem assays (depositor defined):AID435030, AID449728, AID449731, AID488942, AID488955, AID488956]; type: functional
# [33] = test system: Vero; experiment: cells; type: functional; details: Chlorocebus sabaeus
smiles,measurement,setting,value
COc1cc(N=c2ssnc2Cl)cc(OC)c1OC,IC50,[1],2.91 µM (active)
same,IC50,[2],> 100 µM (inactive)
O=C(Nc1nc2c(F)cc(F)cc2s1)c1ccc([N+](=O)[O-])o1,EC50,[3],12 µM (active)
same,IC50,[4],> 20 µM (inactive)
same,IC50,[5],> 20 µM (inactive)
same,IC50,[6],15.5 µM (inactive)
same,IC50,[7],7.18 µM (active)
same,IC50,[8],4.95 µM (active)
same,EC50,[9],> 53 µM (inactive)
same,IC50,[10],> 20 µM (inactive)
same,IC50,[11],> 20 µM (inactive)
CCCCCn1nc(-c2ccccc2)c2nc3ccccc3nc21,IC50,[12],6.11 µM (active)
same,AC50,[13],> 350 µM (inactive)
same,AC50,[14],56.5 µM (active)
same,AC50,[15],31.7 µM (active)
same,EC50,[9],4.97 µM (active)
CCCS(=O)(=O)N1CCCC(C(=O)NCCCOCC)C1 (centres undefined),AC50,[16],inconclusive
O=C(CCCN1C(=O)/C(=C/c2ccc3c(c2)OCO3)SC1=S)Nc1ccc(C(=O)O)c(O)c1,IC50,[17],2.09 µM (active)
same,IC50,[18],39.4 µM (active)
same,IC50,[19],> 100 µM (inactive)
same,IC50,[20],8.75 µM (active)
same,IC50,[21],73.1 µM (active)
same,IC50,[22],> 32 µM (inactive)
CC(C)CCN1CCC[C@H](NC(=O)COc2ccc(F)c(Cl)c2)C1,EC50,[23],10 µM (active)
COc1ccc(OC)c(/C=N/NC(=O)CSc2cc(C)nc3c(OC)cccc23)c1,AC50,[24],34.3 µM (active)
same,AC50,[25],6.88 µM (active)
same,AC50,[26],10.7 µM (active)
O=C(NCc1ccco1)c1ccc([N+](=O)[O-])o1,IC50,[27],4.6 µM (active)
same,IC50,[28],34.6 µM (active)
same,EC50,[29],128 nM (active)
same,EC50,[30],> 60 µM (not active)
same,IC50,[31],113 µM (inactive)
same,IC50,[32],> 39.5 µM (inactive)
same,CC50,[33],22.8 µM (active)

# Source: ChEMBL document CHEMBL1201862, “PubChem BioAssay data set” (2004)
